What was measured:
Eimeria tenella = assay: In vitro efficacy against Eimeria tenella in infected MDBK cell culture (schizonts/merozoites counted microscopically); type: cell-based; parameters: Activity in inhibiting development of Eimeria tenella in vitro (schizonts and merozoites) / Presence of schizonts/merozoites (microscopic observation, picture): dose or concentration left out as unconfirmed; conditions: for Inhibition of development of Eimeria tenella in cell culture (formation of merozoites): five different concentrations in the presence of the parasite (FIG. 30); for Activity in inhibiting development of Eimeria tenella in vitro (schizonts and merozoites) / Presence of schizonts/merozoites (microscopic observation, picture): second series; for Activity in inhibiting development of Eimeria tenella in vitro (schizonts and merozoites): one concentration of 3.125 (FIG. 30A); for Presence of schizonts/merozoites (microscopic observation, picture): 3.125, FIG. 30B/30C; for Activity towards the parasite Eimeria tenella (summary): summary of in vitro testing of fifteen polyether ionophores; for Development of Eimeria tenella in vitro / Inhibition of the parasite Eimeria tenella: third series; for Development of Eimeria tenella in vitro: at very low concentrations (<0.39 μg/μL) (FIG. 31B); for Inhibition of the parasite Eimeria tenella: at low concentrations (FIG. 31B)
Experimental: Once the IC50 concentration was determined, the test was performed on infected cells. The working concentration chosen was always lower than IC50.
After having cultured cells at 40° C. in each well of a 96-well plate, they were treated with a specific concentration (<IC50, allowing the inhibition of parasites in over 50% of cells) of polyether ionophore. Then, the sporozoites of Eimeria tenella were excysted and the cells infected with purified sporozoites. After incubation for 24 hrs at 40° C., the medium was changed. The efficiency of molecules was evaluated microscopically after 40 hrs and 48 hrs. The release of merozoites was noted (FIG. 30B). Thus, in explicit cases, the merozoites released were counted; in ambiguous cases, the quantitative PCR ([…]) will be used. For each test, a positive control of treatment (with monensin 1a) and a positive control of infection was made.

MDBK cells = assay: Cytotoxicity testing / IC50 determination on MDBK cells (Cell Titer, tetrazolium to formazan, 96-well); type: cell-based, Bovine; conditions: summary statement
From the text: Cytotoxicity testing. For the prevention and the treatment, a compound is considered effective when it is non toxic or its toxicity is low for host cells but high for the target (parasite). For cytotoxicity testing and determination of the IC50, the in vitro model is one of the best methods, enabling this type of testing to be carried out directly on cells alone without fear of fatal consequences as in vivo. The IC50 is the maximum concentration at which at least 50% of cells survive following a treatment. All concentrations above it are excluded for the test; values below it, on the other hand, can be tested in order to determine the concentration that will totally or partially eliminate the parasite or inhibit its development. This test consists in testing several concentrations on cell culture in 96-well plate; the concentrations are tested in duplicate, and the cytotoxicity of the molecules is evaluated with special kits based on an oxidation-reduction reaction at the cell-machinery level (mitochondria).
As in the MTT kit (Promega), the reagent used is the tetrazolium salt MTT (3-[4,5-dimethylthiazol-2-yl]-2,5-diphenyltetrazolium bromide). The tetrazolium ring that it contains is reduced to formazan by the mitochondrial succinate dehydrogenase of active living cells. The color of the medium thus changes from yellow to purplish-blue. The intensity of this color is proportional to the number of living cells present at the time of testing but also to their metabolic activity. The percentage of living cells is determined from the ratio between the absorbance for the test well and the absorbance for the control well (cells alone).
Initially, the inhibitory concentration IC50 was determined. It corresponded to the concentration of polyether ionophore allowing the viability of 50% of cells. Bovine cells were cultured and incubated for 24 hrs at 40° C. in the wells of a 96-well plate. Then, a fixed concentration ([…]) of polyether ionophore was added to each well. The cells were incubated at 40° C. for 24 hrs. 20 μL, of “Cell Titer” was added to each well. The cells were again incubated for 30 min to 1 hour at 40° C. before the plate was read in a plate reader at a wavelength of 490 nm (maximum absorption of the formazan). This reading determined the optical density (OD) of each well and allowed access to the percentage of inhibition. I50=(ODtreated/ODcontrol)×100 […]=[1−(ODtreated/ODcontrol)]×100.
FIG. 26 represents a 96-well plate after adding “Cell Titer”. The intensity of colours depends on the toxicity of the polyether ionophore tested. Increasing color intensity corresponded to increasing number of living cells. […]

CC[C@@]1([C@@H]2O[C@@H]([C@H]3O[C@@](O)(CO)[C@H](C)C[C@@H]3C)C[C@@H]2C)CC[C@H]([C@]2(C)CC[C@]3(C[C@H](O)[C@@H](C)[C@@H]([C@@H](C)[C@@H](OC)[C@H](C)C(=O)O)O3)O2)O1 [Compound 1a, Monensin]
Inhibition of development of Eimeria tenella in cell culture (formation of merozoites) (Eimeria tenella; first series): inhibited the formation of merozoites at very low concentrations

CCC1(C2OC(C3OC(O)(CO)C(C)CC3C)CC2C)CCC(C2(C)CCC3(CC(O)C(C)C(C(C)C(OC)C(C)C(=O)NCc4ccccc4)O3)O2)O1 (stereo not drawn) [Compound 3a, 1-benzylamidomonensine]
Inhibition of development of Eimeria tenella in cell culture (formation of merozoites) (Eimeria tenella; first series): did not appear to significantly inhibit

CCC1(C2OC(C3OC(O)(CO)C(C)CC3C)CC2C)CCC(C2(C)CCC3(CC(O)C(C)C(C(C)C(OC)C(C)C(=O)NCc4ccc(C(=O)OC)cc4)O3)O2)O1 (stereo not drawn) [Compound 3b, 1-(4-methylbenzoate)methylene Amidomonensine]
Inhibition of development of Eimeria tenella in cell culture (formation of merozoites) (Eimeria tenella; first series): did not appear to significantly inhibit

CCC1(C2OC(C3OC(O)(CO)C(C)CC3C)CC2C)CCC(C2(C)CCC3(CC(O)C(C)C(C(C)C(OC)C(C)C(=O)NCc4cccc(C(=O)OC)c4)O3)O2)O1 (stereo not drawn) [Compound 3c, 1-(3-methylbenzoate)methylene Amidomonensin]
Activity in inhibiting development of Eimeria tenella in vitro (schizonts and merozoites) (Eimeria tenella): no significant activity

CCC1(C2OC(C3OC(O)(CO)C(C)CC3C)CC2C)CCC(C2(C)CCC3(CC(O)C(C)C(C(C)C(OC)C(C)C(=O)NC(C(=O)OC)c4ccc(F)cc4)O3)O2)O1 (stereo not drawn) [Compound 4c, Methyl 2′-(monensinamido)-2′-(4′-fluorophenyl)acetate]
Activity in inhibiting development of Eimeria tenella in vitro (schizonts and merozoites) (Eimeria tenella): no significant activity

CCC1(C2OC(C3OC(O)(CO)C(C)CC3C)CC2C)CCC(C2(C)CCC3(CC(O)C(C)C(C(C)C(OC)C(C)C(=O)NCc4ccc(C(=O)O)cc4)O3)O2)O1 (stereo not drawn) [Compound 6a, 1-(benzoic acid)methylene Amidomonensine]
Inhibition of development of Eimeria tenella in cell culture (formation of merozoites) (Eimeria tenella; first series): did not appear to significantly inhibit

CCC12CCC(O1)C1(C)CCC3(CC(O)C(C)C(O3)C(C)C(OC)C(C)C(=O)OCC3(O)OC(C(C)CC3C)C3CC(C)C2O3)O1 (stereo not drawn) [Compound 7, Monensin Lactone]
Concentration at which formation of merozoites was inhibited (Eimeria tenella; first series, at high concentrations (FIG. 30)): greater than or equal to 12.5 g/μL

CCC1(C2OC(C3OC(CO)(OC)C(C)CC3C)CC2C)CCC(C2(C)CCC3(CC(O)C(C)C(C(C)C(OC)C(C)C(=O)O)O3)O2)O1 (stereo not drawn) [Compound 8a, 25-Methoxymonensin]
Cytotoxicity (summary in words) (MDBK cells): very low cytotoxicities | Presence of schizonts/merozoites (microscopic observation, picture) (Eimeria tenella): absence of schizonts and merozoites | Presence of schizonts/merozoites (microscopic observation, picture) (Eimeria tenella; listed as EV 02058): merozoites not present | Activity in inhibiting development of Eimeria tenella in vitro (schizonts and merozoites) (Eimeria tenella): very high efficacy | Activity towards the parasite Eimeria tenella (summary) (Eimeria tenella): significant activity

CCC1(C2OC(C3OC4(COC(=O)CO4)C(C)CC3C)CC2C)CCC(C2(C)CCC3(CC(O)C(C)C(C(C)C(OC)C(C)C(=O)O)O3)O2)O1 (stereo not drawn) [Compound 12, Oxo-dioxane Monensin]
Cytotoxicity (summary in words) (MDBK cells): very low cytotoxicities | Activity towards the parasite Eimeria tenella (summary) (Eimeria tenella): significant activity | Development of Eimeria tenella in vitro (Eimeria tenella): completely inhibited

CCC12CCC(O1)C1(C)CCC3(CC(OC)C(C)C(O3)C(C)C(OC)C(C)C(=O)OCC3(OC)OC(C(C)CC3C)C3CC(C)C2O3)O1 (stereo not drawn) [Compound 14a, 7,25-dimethoxylactone]
Presence of schizonts/merozoites (microscopic observation, picture) (Eimeria tenella): merozoites present | Activity in inhibiting development of Eimeria tenella in vitro (schizonts and merozoites) (Eimeria tenella): no significant activity

CCC12CCC(O1)C1(C)CCC3(CC(=O)C(C)C(O3)C(C)C(OC)C(C)C(=O)OCC(=O)C(C)CC(C)C(=O)C3CC(C)C2O3)O1 (stereo not drawn) [Compound 18, Triacetone Lactone]
Inhibition of the parasite Eimeria tenella (Eimeria tenella): did not inhibit

CCC1(C2OC(C3OC(=O)C(C)CC3C)CC2C)CCC(C2(C)CCC3(CC(=O)C(C)C(C(C)C(OC)C(C)C(=O)O)O3)O2)O1 (stereo not drawn) [Compound 19, oxo-lactone Monensin]
Cytotoxicity (summary in words) (MDBK cells): very low cytotoxicities | Activity in inhibiting development of Eimeria tenella in vitro (schizonts and merozoites) (Eimeria tenella): significant efficacy | Activity towards the parasite Eimeria tenella (summary) (Eimeria tenella): satisfactory and encouraging results

CCC1(C2OC(C3OC4(COC(=O)CO4)C(C)CC3C)CC2C)CCC(C2(C)CCC3(CC(=O)C(C)C(C(C)C(OC)C(C)C(=O)O)O3)O2)O1 (stereo not drawn) [Compound 26, 7-oxo-monensin Oxodioxane]
Inhibition of the parasite Eimeria tenella (Eimeria tenella): did not inhibit

CCC1(C2OC(C3OC(CO)(OCC(=O)O)C(C)CC3C)CC2C)CCC(C2(C)CCC3(CC(O)C(C)C(C(C)C(OC)C(C)C(=O)O)O3)O2)O1 (stereo not drawn) [Compound 27, O-25-glycolic Acid Monensin]
Cytotoxicity (summary in words) (MDBK cells): very low cytotoxicities | Activity towards the parasite Eimeria tenella (summary) (Eimeria tenella): significant activity | Development of Eimeria tenella in vitro (Eimeria tenella): completely inhibited

CCC1(C2OC(C(O)C(C)CC(C)C(=O)O)CC2C)CCC(C2(C)CCC3(CC(=O)C(C)C(C(C)C(OC)C(C)C(=O)O)O3)O2)O1 (stereo not drawn) [Compound 31, 7-oxo, 21-hydroxy, 25-acid Monensin]
Concentration at which significantly effective against the parasite (Eimeria tenella; third series (FIG. 31B)): greater than 1.56 g/μL | Inhibition of the parasite Eimeria tenella (Eimeria tenella): did not inhibit
